These results are taken from paper PMC11272598, “RG7774 (Vicasinabin), an orally bioavailable cannabinoid receptor 2 (CB2R) agonist, decreases retinal vascular permeability, leukocyte adhesion, and ocular inflammation in animal models” (Frontiers in Pharmacology, 2024).

Several values for one entry are separate records, joined by “and”; a condition that tells them apart may be missing. Equal values may be shown once.

One data set has as its system Jurkat cells. The experiment in a line: xCELLigence impedance assay in Jurkat cells. The conditions noted are these: xCELLigence, 1 h. Format: cell-based, human. Here is the method: Background impedance was determined in 96-well RTCA E-plates (Agilent Technologies, Santa Clara, CA, United States) coated with 150 μg/mL fibronectin/H2O (Sigma-Aldrich, St. Louis, MO, United States) and containing 50 μL RPMI 1640 assay medium (Fisher Scientific, Schwerte, Germany) 31870) with 10% fetal calf serum (FCS). Jurkat cells (200,000 cells per well) were seeded in 100 μL of growth medium, allowed to settle for 30 min at RT, and cultured overnight at 37°C and 5% CO2. Dose-response curves were generated by adding increasing concentrations of RG7774 to seeded Jurkat cells and performing impedance measurements (xCelligence RTCA M, Agilent Technologies, Santa Clara, CA, United States) at baseline and 1 h after treatment. Displacement experiments were performed by incubating seeded Jurkat cells with 10 μM SR144528, a CB2R-selective antagonist (Tocris Bioscience, Bristol, United Kingdom) or 10 μM RO6851228 (a CB2R-selective inverse agonist; in-house synthesis) in assay medium overnight at 37°C and 5% CO2. Cells were re-treated with 10 μM SR144528 or […] for 1 h and stimulated with 233 nM RG7774 in assay medium. […] Displacement data are presented as the percentage of the maximal normalized cell index determined after antagonist/inverse agonist treatment relative to the percentage of the normalized cell index at 109 nM RG7774 treatment.

The next data set can be described thus: Microsomal clearance. It counts as in vitro ADME. Conditions: pH 7.4. Here is the method: Commercially-available ultra-pooled microsome preparations from human (150 different donors) (BD UltraPool HLM 150, Beckton Dickinson, Japan) or mouse liver tissues (Beckton Dickinson) were incubated in 96-deep-well plates containing 0.1 M phosphate buffer (pH 7.4) at 37 °C on a TECAN liquid handling system equipped with Teleshake shakers and a warming device (Tecan Group Ltd., Switzerland). The NADPH regenerating system consisted of 30 mM glucose-6-phosphate disodium salt hydrate, 10 mM NADP, 30 mM MgCl2 × 6 H2O, and 5 mg/mL glucose-6-phosphate dehydrogenase (Roche Diagnostics, IN, USA) in 0.1 M potassium phosphate buffer (pH 7.4). The microsome mixture (0.5 mg/mL) was incubated with 1 μM RG7774 in 96-well plates at 37 °C. After 1, 3, 6, 9, 15, 25, 35, and 45 min, aliquots of the incubations (40 μL) were removed and reactions were quenched with 1:3 (v/v) acetonitrile containing internal standards. Samples were cooled, centrifuged, and analyzed by liquid chromatography-mass spectroscopy (LC-MS)/mass spectroscopy (MS). Log peak area ratios (test compound peak area/internal standard peak area) were plotted against incubation time with a linear fit. The calculated slope was used to determine the intrinsic clearance: CLint (μL/min/mg protein) = –slope (min–1) × 1000/protein concentration, mg/mL.

Data set [1] relates to STZ-induced diabetes retinal vascular permeability. The experiment in a line: Rats with STZ-induced type 1 diabetes (fluorophotometry). Format: in vivo, Long Evans rats. The conditions noted are these: STZ diabetic rats, 10 mg/kg daily oral gavage, 6 weeks after STZ, normalized to plasma. The procedure:
Twenty-six male Long Evans rats (outbred) (Charles River Laboratories, Sulzfeld, Germany) aged 7 weeks and weighing 250–270 g at the beginning of the study were housed in individually ventilated cages with a maximum density of n = 2 rats per cage with the same sex and monitored daily. Bedding for diabetic animals was changed daily. The room was kept at 20°C–24°C with 50%–60% humidity and a 12/12 h light-dark cycle. Rats received a standard diet and water ad libidum, in addition to soaked food or soft diet. For animal welfare and for dosing purposes, animals were weighed every other day. Rats were sacrificed if weight loss was greater than 20% of the original weight, or more than 20% of body gain within 1 week.
Animals were fasted overnight and injected the following morning with IP 60 mg/kg (60 mg/mL at 1 mL/kg) STZ as reported previously ([Kim et al., 2007]; [Furman, 2015]) in 0.05 M sodium citrate buffer (pH 4.5). […]
To quantify fluorotron measurements, raw data were generated, exported as .txt files, and plotted using Microsoft Excel. The average AUC was calculated for 5 steps in the region of the scans corresponding to the vitreous peak. […] All data are expressed as mean ± SEM ng/mL ratios of vitreous:plasma fluorescein. Fluorophotometry data were analyzed using 2-way ANOVA followed by Newman–Keuls multiple comparisons test. […]

Consider `Cn1nnnc1Cn1nnc2c(N3CC[C@H](O)C3)nc(C(C)(C)C)nc21` [RG7774, (S)-1-(5-tert-butyl-3-[(1-methyl-1H-tetrazol-5-yl)methyl]-3H-[1,2,3]triazolo[4,5-d]pyrimidin-7-yl)pyrrolidin-3-ol], for which the “EC50, cell index relative to maximal cell index of RG7774 at 233 nM” value in the data set with Jurkat cells is 10.8 nM and 10.8 ± 4.2 nM. Also, the microsomal CLint (as a rule, the rate of metabolic loss divided by the concentration) at 1 µM came out at 21.7 µL/min/mg in the data set “Microsomal clearance” (human); 15 µL/min/mg in “Microsomal clearance” (mouse, mouse liver microsomes); 25 µL/min/mg in “Microsomal clearance” (rat, rat microsomes). The vitreous fluorescein in data set [1] is given as 25.6 ng/mL.
